Assay results published in US12649722B2, “Herbicidal cinnoline derivatives” (SYNGENTA CROP PROTECTION AG, priority 2020, dated 2026).

What was measured:
Type in all cases: in vivo
[1] = tested on: Echinochloa crus-galli (ECHCG); experiment: Post-emergence Test, ECHCG; details: sprayed after 8 days cultivation, 1000 g/ha, evaluated after 13 days
Method in brief: (§1)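 Pots sown with AMARE, SOLNI, SETFA, LOLPE, ECHCG, IPOHE, kept in glasshouse (24/16 °C, 14 h light, 65% humidity), sprayed at 1000 g/ha unless stated, in acetone/water 50:50 with 0.5% Tween 20. Damage scored after 13 days on a 0–5 scale (5=81–100%, 0=0%).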

Setaria faberi (SETFA) [2] = experiment: Post-emergence Test, SETFA; details: sprayed after 8 days cultivation, 1000 g/ha, evaluated after 13 days
Method in brief: as §1

[3] = tested on: Ipornoea hederacea (IPOHE); experiment: Post-emergence Test, IPOHE; details: sprayed after 8 days cultivation, 1000 g/ha, evaluated after 13 days
Method in brief: as §1

Lolium perenne (LOLPE) [4] = experiment: Pre-emergence Test, LOLPE; details: 1000 g/ha, evaluated after 13 days
Solarium nigrum (SOLNI) [5] = experiment: Post-emergence Test, SOLNI; details: sprayed after 8 days cultivation, 1000 g/ha, evaluated after 13 days
Method: (§2) Seeds of a variety of test species are sown in standard soil in pots (Amaranthus retoflexus (AMARE), Solarium nigrum (SOLNI), Setaria faberi (SETFA), Lolium perenne (LOLPE), Echinochloa crus-galli (ECHCG), Ipornoea hederacea (IPOHE)). After 8 days cultivation under controlled conditions in a glasshouse (at 24° C./16° C., day/night; 14 hours light; 65% humidity), the plants are sprayed with an aqueous spray solution derived from the formulation of the technical active ingredient in acetone/water (50:50) solution containing 0.5% Tween 20 (polyoxyethylene sorbitan monolaurate, CAS RN 9005-64-5). Compounds are applied at 1000 g/ha unless otherwise stated. The test plants are then grown in a glasshouse under controlled conditions in a glasshouse (at 24° C./16° C., day/night; 14 hours light; 65% humidity) and watered twice daily. After 13 days the test is evaluated for the percentage damage caused to the plant. The biological activities are shown in the following table on a five-point scale (5=81-100%; 4=61-80%; 3=41-60%; 2=21-40%; 1=10-20%; 0=0%; −=not tested).

ABUTH [6] = experiment: Pre-emergence Test, ABUTH; details: 1000 g/ha, evaluated after 13 days
Solarium nigrum (SOLNI) [7] = experiment: Pre-emergence Test, SOLNI; details: 1000 g/ha, evaluated after 13 days
ZEAMX [8] = experiment: Pre-emergence Test, ZEAMX; details: 1000 g/ha, evaluated after 13 days
[9] = tested on: Echinochloa crus-galli (ECHCG); experiment: Pre-emergence Test, ECHCG; details: 1000 g/ha, evaluated after 13 days
[10] = tested on: Amaranthus retoflexus (AMARE); experiment: Post-emergence Test, AMARE; details: sprayed after 8 days cultivation, 1000 g/ha, evaluated after 13 days
Method in brief: as §1

ZEAMX [11] = experiment: Post-emergence Test, ZEAMX; details: sprayed after 8 days cultivation, 1000 g/ha, evaluated after 13 days
Setaria faberi (SETFA) [12] = experiment: Pre-emergence Test, SETFA; details: 1000 g/ha, evaluated after 13 days
[13] = tested on: Amaranthus retoflexus (AMARE); experiment: Pre-emergence Test, AMARE; details: 1000 g/ha, evaluated after 13 days
[14] = tested on: Ipornoea hederacea (IPOHE); experiment: Pre-emergence Test, IPOHE; details: 1000 g/ha, evaluated after 13 days
Lolium perenne (LOLPE) [15] = experiment: Post-emergence Test, LOLPE; details: sprayed after 8 days cultivation, 1000 g/ha, evaluated after 13 days
Method: as §2

ABUTH [16] = experiment: Post-emergence Test, ABUTH; details: sprayed after 8 days cultivation, 1000 g/ha, evaluated after 13 days

| SMILES | percentage damage caused to the plant, ECHCG [1] | percentage damage caused to the plant, SETFA (Setaria faberi (SETFA) [2]) | percentage damage caused to the plant, IPOHE [3] | percentage damage caused to the plant, LOLPE (Lolium perenne (LOLPE) [4]) | percentage damage caused to the plant, SOLNI (Solarium nigrum (SOLNI) [5]) | percentage damage caused to the plant, ABUTH (ABUTH [6]) | percentage damage caused to the plant, SOLNI (Solarium nigrum (SOLNI) [7]) | percentage damage caused to the plant, ZEAMX (ZEAMX [8]) | percentage damage caused to the plant, ECHCG [9] | percentage damage caused to the plant, AMARE [10] | percentage damage caused to the plant, ZEAMX (ZEAMX [11]) | percentage damage caused to the plant, SETFA (Setaria faberi (SETFA) [12]) | percentage damage caused to the plant, AMARE [13] | percentage damage caused to the plant, IPOHE [14] | percentage damage caused to the plant, LOLPE (Lolium perenne (LOLPE) [15]) | percentage damage caused to the plant, ABUTH (ABUTH [16]) |
| --- | --- | --- | --- | --- | --- | --- | --- | --- | --- | --- | --- | --- | --- | --- | --- | --- |
| CO/N=C(\C)c1cccc2c1c(=O)c(C(=O)O)nn2-c1ccc(OC(F)(F)F)cc1 [Compound P2, 5-[(E)-N-methoxy-C-methyl-carbonimidoyl]-4-oxo-1-[4-(trifluoromethoxy)phenyl] cinnoline-3-carboxylic acid] | 4 (4=61-80%) | 4 (4=61-80%) | 3 (3=41-60%) | 4 (4=61-80%) | 2 (2=21-40%) | 3 (3=41-60%) | 2 (2=21-40%) | 4 (4=61-80%) | 5 (5=81-100%) | 1 (1=10-20%) | 3 (3=41-60%) | 5 (5=81-100%) | 0 (0=0%) | 2 (2=21-40%) | 3 (3=41-60%) | 4 (4=61-80%) |
| C=C(OCC)c1cccc2c1c(=O)c(C(=O)OC)nn2-c1ccc(OC(F)(F)F)cc1 [Compound P3, methyl 5-(1-ethoxyvinyl)-4-oxo-1-[4-(trifluoromethoxy)phenyl] cinnoline-3-carboxylate] | 4 (4=61-80%) | 4 (4=61-80%) | 3 (3=41-60%) | 4 (4=61-80%) | 4 (4=61-80%) | 3 (3=41-60%) | 2 (2=21-40%) | 4 (4=61-80%) | 4 (4=61-80%) | 1 (1=10-20%) | 3 (3=41-60%) | 5 (5=81-100%) | 0 (0=0%) | 2 (2=21-40%) | 4 (4=61-80%) | 3 (3=41-60%) |
| N#Cc1cccc2c1c(=O)c(C(=O)O)nn2-c1ccc(OC(F)(F)F)cc1 [Compound P8, 5-cyano-4-oxo-1-[4-(trifluoromethoxy)phenyl] cinnoline-3-carboxylic acid] | 4 (4=61-80%) | 4 (4=61-80%) | 4 (4=61-80%) | 4 (4=61-80%) | 3 (3=41-60%) | 1 (1=10-20%) | 1 (1=10-20%) | 0 (0=0%) | 5 (5=81-100%) | 4 (4=61-80%) | 2 (2=21-40%) | 5 (5=81-100%) | 2 (2=21-40%) | 1 (1=10-20%) | 4 (4=61-80%) | 1 (1=10-20%) |
| COC(=O)c1nn(-c2ccc(OC(F)(F)F)cc2)c2cccc(C(C)=O)c2c1=O [Compound P9, methyl 5-acetyl-4-oxo-1-[4-(trifluoromethoxy)phenyl] cinnoline-3-carboxylate] | 4 (4=61-80%) | 4 (4=61-80%) | 2 (2=21-40%) | 4 (4=61-80%) | 4 (4=61-80%) | 3 (3=41-60%) | 3 (3=41-60%) | 4 (4=61-80%) | 5 (5=81-100%) | 1 (1=10-20%) | 4 (4=61-80%) | 5 (5=81-100%) | 1 (1=10-20%) | 3 (3=41-60%) | 4 (4=61-80%) | 3 (3=41-60%) |
